The results in this text go back to patent publication US20240190876A1, “Tricyclic Urea Compounds As JAK2 V617F Inhibitors” (Incyte Corporation, priority 2022, published 2024).

Some results are limits rather than exact numbers.

Data set [1] has as its target T1, FLT3 (Homo sapiens, UniProt P36888).
T1 sequence (P36888 27-993): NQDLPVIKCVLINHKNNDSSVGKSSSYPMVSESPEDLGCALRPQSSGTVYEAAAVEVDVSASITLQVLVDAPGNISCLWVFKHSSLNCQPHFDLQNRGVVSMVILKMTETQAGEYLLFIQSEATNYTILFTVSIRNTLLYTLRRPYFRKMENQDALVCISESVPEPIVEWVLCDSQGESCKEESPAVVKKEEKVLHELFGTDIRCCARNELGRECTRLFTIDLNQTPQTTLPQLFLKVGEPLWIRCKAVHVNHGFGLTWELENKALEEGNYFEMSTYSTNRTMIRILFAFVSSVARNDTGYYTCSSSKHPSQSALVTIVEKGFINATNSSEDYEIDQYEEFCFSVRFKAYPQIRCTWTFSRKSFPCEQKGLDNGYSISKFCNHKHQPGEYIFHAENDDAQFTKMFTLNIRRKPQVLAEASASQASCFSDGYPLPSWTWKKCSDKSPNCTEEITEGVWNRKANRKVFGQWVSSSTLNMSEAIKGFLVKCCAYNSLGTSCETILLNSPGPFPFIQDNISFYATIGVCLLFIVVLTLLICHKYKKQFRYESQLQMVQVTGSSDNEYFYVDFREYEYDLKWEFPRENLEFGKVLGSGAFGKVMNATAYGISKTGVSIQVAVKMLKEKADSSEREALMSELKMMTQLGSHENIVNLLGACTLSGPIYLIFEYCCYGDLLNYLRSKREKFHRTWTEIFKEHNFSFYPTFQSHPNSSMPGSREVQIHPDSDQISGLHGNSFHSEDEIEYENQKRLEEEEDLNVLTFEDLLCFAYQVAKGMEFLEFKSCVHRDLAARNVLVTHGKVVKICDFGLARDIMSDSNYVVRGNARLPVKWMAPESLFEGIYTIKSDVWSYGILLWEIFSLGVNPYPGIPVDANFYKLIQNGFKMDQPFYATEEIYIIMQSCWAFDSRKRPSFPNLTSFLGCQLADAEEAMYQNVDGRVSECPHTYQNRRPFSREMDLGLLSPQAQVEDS
The data set is described as follows: FLT3 Enzymatic Assay. To be noted: HTRF kinase assay, 1 mM ATP. In kind it is biochemical. As to the method: (§1) The kinase assays were carried out at room temperature in assay buffer (HEPES 50 mM, pH 7.0, NaN3 0.02%, BSA 0.01%, Orthovanadate 0.1 mM, DTT 1 mM, MgCl2 10 mM) in a final volume of 10 μL. Testing compounds were prepared by serial dilution in DMSO and transferred to the plate wells by ECHO liquid handler (Labcyte) with 0.5% DMSO in the final assay. […]. Reactions were initiated by the addition of 5 μL ATP in assay buffer. The final 10 μL kinase reaction consists of 0.011 nM FLT3, 1 mM ATP, 500 nM TK Substrate-biotin and SEB reagent 62.5 nM in assay buffer. […] The plates were then sealed and centrifuged at 1800 rpm for 2 minutes. After 60 minutes incubation at room temperature, the product activity was determined by measuring the fluorescence at 620 nm and 665 nm on Pherastar microplate reader (BMG Labtech). A ratio is calculated (665/620 nm) for each well. Wells with DMSO only were served as the positive controls and wells containing no ATP were used as negative controls. IC50 determination was performed by fitting the curve of percent control activity versus the log of the compound concentration using the GraphPad Prism 7.0 software.
(Time-resolved FRET reads energy transfer from a long-lived donor to a nearby acceptor.)

For data set [2], the system named is FLT3. The data set is described as follows: FLT3 Enzymatic Assay. In kind it is biochemical. To be noted: ratio FLT3 IC50 / JH2 V617F binding IC50. As to the method: as §1
Data set [3] concerns KIT. The data set can be described thus: KIT Enzymatic Assay. In kind it is biochemical. The conditions noted are these: ratio KIT IC50 / JH2 V617F binding IC50. As to the method:
as §1, with “0.12” for “0.011”, “KIT,” for “FLT3,”

Data set [4] is described as follows: In Vitro Intrinsic Clearance. In kind it is in vitro ADME. To be noted: human liver microsomes, 1 μM compound, NADPH, scaled to human. As for the experimental part: For in vitro metabolic stability experiments, test compounds were incubated with human liver microsomes at 37° C. The incubation mixture contained test compounds (1 μM), NADPH (2 mM), and human liver microsomes ([…]) in 100 mM phosphate buffer (pH 7.4). The mixture was pre-incubated for 2 min at 37° C. before the addition of NADPH. Reactions were commenced upon the addition of NADPH and quenched with ice-cold methanol at 0, 10, 20, and 30 min. Terminated incubation mixtures were analyzed using LC-MS/MS system. The analytical system consisted of a Shimadzu LC-30AD binary pump system and SIL-30AC autosampler (Shimadzu Scientific Instruments, Columbia, MD) coupled with a Sciex Triple Quad 6500+mass spectrometer from Applied Biosystems (Foster City, CA). […] Mobile phase A consisted of 0.1% formic acid in water, and mobile phase B consisted of 0.1% formic acid in acetonirile. The total LC-MS/MS runtime was 2.75 minutes with a flow rate of 0.75 mL/min. Peak area integrations and peak area ratio calculations were performed using Analyst software (version 1.6.3) from Applied Biosystems.
The in vitro intrinsic clearance, CLint, in vitro, was calculated from the t1/2 of test compound disappearance as CLint, in vitro=(0.693/t1/2)×(1/Cprotein), where Cprotein is the protein concentration during the incubation, and t1/2 was determined by the slope (k) of the log-linear regression analysis of the concentration versus time profiles; thus, t1/2ln2/k. The CLint, in vitro values were scaled to the in vivo values for human by using physiologically based scaling factors, hepatic microsomal protein concentrations (45 mg protein/g liver), and liver weights (21 g/kg body weight). The equation CLint=CLint, in vitro×(mg protein/g liver weight)×(g liver weight/kg body weight) was used. The in vivo hepatic clearance (CLH) was then calculated by using CLint and hepatic blood flow, Q (20 mL·min^−1kg^−1 in humans) in the well-stirred liver model disregarding all binding from CLH (Q×CLint)/(Q+CLint). The hepatic extraction ratio was calculated as CLH divided by Q.
Background: Liver microsomes are a subcellular fraction often used to study metabolism.

Data set [5] has as its target KIT (Homo sapiens, UniProt P10721). The data set can be described thus: KIT Enzymatic Assay. In kind it is biochemical. The conditions noted are these: HTRF kinase assay, 1 mM ATP. As for the experimental part:
as §1, with “0.12” for “0.011”, “KIT,” for “FLT3,”

Usually IC50 stands for the midpoint of a concentration-inhibition curve.

Sequence of KIT (Homo sapiens, UniProt P10721) (P10721 26-976, species assumed): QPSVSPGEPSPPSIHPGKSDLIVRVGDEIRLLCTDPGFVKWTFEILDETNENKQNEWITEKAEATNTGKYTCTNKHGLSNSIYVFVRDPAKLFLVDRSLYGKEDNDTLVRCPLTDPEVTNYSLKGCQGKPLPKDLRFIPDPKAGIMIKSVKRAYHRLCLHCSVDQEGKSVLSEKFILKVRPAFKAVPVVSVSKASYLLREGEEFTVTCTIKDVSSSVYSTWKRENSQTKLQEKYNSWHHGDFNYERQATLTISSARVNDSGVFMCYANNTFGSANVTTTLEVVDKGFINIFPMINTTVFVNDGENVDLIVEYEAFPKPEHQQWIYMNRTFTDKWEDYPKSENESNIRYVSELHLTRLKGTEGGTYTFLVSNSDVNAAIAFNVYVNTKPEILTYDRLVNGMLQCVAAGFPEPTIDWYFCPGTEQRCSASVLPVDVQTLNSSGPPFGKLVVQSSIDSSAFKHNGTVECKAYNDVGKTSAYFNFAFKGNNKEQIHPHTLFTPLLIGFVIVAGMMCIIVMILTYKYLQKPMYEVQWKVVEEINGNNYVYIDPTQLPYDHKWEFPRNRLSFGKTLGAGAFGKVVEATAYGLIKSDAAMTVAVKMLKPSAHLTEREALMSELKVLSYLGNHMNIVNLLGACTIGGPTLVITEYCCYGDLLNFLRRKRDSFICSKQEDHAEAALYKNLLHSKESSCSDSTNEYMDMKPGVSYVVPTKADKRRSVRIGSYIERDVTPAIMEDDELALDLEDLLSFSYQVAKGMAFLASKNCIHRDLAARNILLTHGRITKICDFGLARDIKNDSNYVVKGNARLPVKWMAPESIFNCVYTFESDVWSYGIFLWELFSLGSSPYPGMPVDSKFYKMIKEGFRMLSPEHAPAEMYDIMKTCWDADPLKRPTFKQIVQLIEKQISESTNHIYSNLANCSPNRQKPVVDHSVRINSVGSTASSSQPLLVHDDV

On FLT3 [1], `COc1nn(C)cc1-c1[nH]c2ncc3c(c2c1-c1ccc2c(cnn2C)c1)n(C1CCOCC1)c(=O)n3C` [Comparative Example A, reference compound] yielded an IC50 of 250 to 1250 nM. Further, in the data set with FLT3 [2], the “Selectivity FLT3/JH2 V617F” value was “* (* refers to selectivity of ≤500-fold)”. Moreover, in the data set on KIT [3], the “Selectivity KIT/JH2 V617F” value is “* (* refers to selectivity of ≤500-fold)”. In addition, the h-IntCL result in data set [4] was “‡ ‡ ‡ (‡ ‡ ‡ refers to h-IntCL of >1 L/h/kg)”.

For `[2H]C([2H])([2H])n1ncc2cc(-c3c(-c4cn(C)nc4OC)[nH]c4ncc5c(c34)n(C3CCOCC3)c(=O)n5C)ccc21` [Comparative Example B, reference compound], the values for the half-maximal inhibitory concentration (IC50) against FLT3 [1] and against KIT [5] were 250 to 1250 nM and 1250 to 2500 nM, respectively. For the same compound, the “Selectivity FLT3/JH2 V617F” value in the data set with FLT3 [2] was “* (* refers to selectivity of ≤500-fold)”. In addition, in the data set with KIT [3], the “Selectivity KIT/JH2 V617F” value is reported as “** (** refers to selectivity of >500-fold to ≤1500-fold)”. Besides, the h-IntCL result in data set [4] was “‡ ‡ (‡ ‡ refers to h-IntCL of ≥0.7 L/h/kg to ≤1 L/h/kg)”.

Take `Cn1cc(-c2[nH]c3ncc4c(c3c2-c2ccc3c(cnn3C)c2)n([C@H]2CC[C@@H](CC#N)CC2)c(=O)n4C)cn1` [Comparative Example C, reference compound]: the values for the IC50 at FLT3 [1] and at KIT [5] were at most 25 nM and 25 to 250 nM, respectively. Besides, the “Selectivity FLT3/JH2 V617F” value with FLT3 [2] was “* (* refers to selectivity of ≤500-fold)”. The “Selectivity KIT/JH2 V617F” value in the data set with KIT [3] is “* (* refers to selectivity of ≤500-fold)”. The h-IntCL result in data set [4] was “‡ ‡ ‡ (‡ ‡ ‡ refers to h-IntCL of >1 L/h/kg)”.

As to `COc1ccc(-c2c(-c3cnn(Cc4ccncc4)c3)[nH]c3ncc4c(c23)n(C2CCCC2)c(=O)n4C)cc1` [Comparative Example D, reference compound], the h-IntCL entry in data set [4] is “‡ ‡ ‡ (‡ ‡ ‡ refers to h-IntCL of >1 L/h/kg)”.

With `COc1nn(C)cc1-c1[nH]c2ncc3c(c2c1-c1ccc2c(cnn2C)c1)n([C@H]1CC[C@@H](CC#N)CC1)c(=O)n3C` [Comparative Example E, reference compound], the “Selectivity FLT3/JH2 V617F” value in the data set on FLT3 [2] is “* (* refers to selectivity of ≤500-fold)”. In the data set with KIT [3], the “Selectivity KIT/JH2 V617F” value is on record as “*** (*** refers to selectivity of >1500-fold to ≤1750-fold)”. Further, in data set [4], the h-IntCL entry is “‡ ‡ ‡ (‡ ‡ ‡ refers to h-IntCL of >1 L/h/kg)”.
